According to patent US9540397B2, “BACE1 inhibitors” (Hoffmann-La Roche Inc., priority 2014, dated 2017):

Legend:
[1] = test system: Aβ40 in brain of wild-type mice; experiment: Lowering of Aβ40 in brain of wild-type mice; type: in vivo; details: Mus musculus, po; female C57Bl/6J mice, 30 mg/kg per os, 4 h; brain Aβ40 related to the value in the vehicle group; read-out: Aβ40 (wt mice, brain)
Method: Lowering of Aβ40 in Brain of Wild-Type Mice:
Animals and Housing Conditions.
Animals were maintained in a 12/12 h light/dark cycle, with lights starting at 6 a.m., and experiments were conducted during the light phase. Animal housing and experimental procedures were in line with ethical and legal guidelines and were authorized by local veterinary authorities.
Experiment. Female C57Bl/6J mice were treated with a dose of 30 mg/kg of the compounds, 3-4 animals per treatment group. The test compound was dissolved in 5% EtOH, 10% Solutol, and was applied per os at 10 mL/kg. After 4 h, the animals were sacrificed and brain and plasma were collected. The brain was cut into halves and immediately frozen on dry ice. Brain was used for measurement of Aβ40 and plasma was used for determination of compound exposure. […] Brain tissue was homogenized in 2% DEA buffer in a Roche MagnaLyser (20″, 4000 rpm) and subsequently centrifuged for 1 h at 100000 g. DEA was reduced to 0.2% in 50 mM NaCl and one-half of the DEA lysate was passed over an Oasis Solid phase extraction plate (Waters; cat. no. 186000679), which had been activated with MeOH and equilibrated in dH2O (1 mL each). After washes in 10% and 30% MeOH (1 mL each), the Aβ-peptides were eluted in 0.8 mL of 2% NH4OH in 90% MeOH. The eluate was dried over a N2 flow, and the dried sample was reconstituted in 30 μL of AlphaLISA assay buffer. Aβ40 was determined by an AlphaLISA assay (Perkin-Elmer). In a white 96-well, half area microplate (Perkin-Elmer cat. no. 6005561), 20 μL of the reconstituted sample were mixed with 5 μL of biotinylated BAP-24 (specific for C-terminus of Aβ40) (Brockhaus, M.; Grunberg, J.; Rohrig, S.; Loetscher, H.; Wittenburg, N.; Baumeister, R.; Jacobsen, H.; Haass, C. Caspasemediated cleavage is not required for the activity of presenilins in amyloidogenesis and NOTCH signaling. NeuroReport 1998, 9, 1481-1486.) stock=4.4 mg/mL, f.c.5.5 μg/mL), and 5 μL 252Q6 acceptor beads (252Q6 antibody, Invitrogen AMB0062) had been previously conjugated with AlphaLISA Acceptor beads (Perkin-Elmer cat. no. 6772002); final dilution 1:500). The mix was incubated for 1 h at RT in the dark. Then 20 μL of Streptavin-coated Donor Beads (Perkin-Elmer cat. no. 6760002, final dilution 1:125) were added and this final mix was incubated in the dark for another 30 min at RT before RFU was measured in an AlphaScreen Reader (Perkin-Elmer Envision 2104). The value obtained for Aβ40 in the treated animals was related to the value in the vehicle group and is given in %. Alternatively a commercial ELISA was used for Aβ40 determination (Wako ELISA: (“Human/Rat β Amyloid (40) ELISA kit Wako II”; cat nr. 294-64701) following the manufacture's instruction. Also here the Aβ-lowering efficacy was calculated as percentage of the vehicle group.

BACE1 = target: T1, BACE1 (Homo sapiens, UniProt P56817); experiment: Cellular Aβ-lowering assay (Abeta 40 AlphaLISA, HEK293 APP cells); type: cell-based; details: 18-20 hrs incubation, Aβ40 in culture supernatant, read-out: BACE1 cell act. Aβ40 IC50
T1 construct: endogenous in cells; host or cells: HEK293 APP cells
Method: Cellular Aβ-lowering assay:
The Abeta 40 AlphaLISA Assay can be used. The HEK293 APP cells were seeded in 96 well Microtiter plates in cell culture medium (Iscove's, plus 10% (v/v) fetal bovine serum, penicillin/streptomycin) to about 80% confluency and the compounds were added at a 3× concentration in ⅓ volume of culture medium (final DMSO concentration was kept at 1% v/v). After 18-20 hrs incubation at 37° C. and 5% CO2 in a humidified incubator, the culture supernatants were harvested for the determination of AP 40 concentrations using Perkin-Elmer Human Amyloid beta 1-40 (high specificity) Kit (Cat#AL275C).
In a Perkin-Elmer White Optiplate-384 (Cat#6007290), 2 ul culture supernatants were combined with 2 μl of a 10× AlphaLISA Anti-hAβ Acceptor beads+Biotinylated Antibody Anti-Aβ 1-40 Mix ([…]/5 nM). After 1 hour room temperature incubation, 16 μl of a 1.25× preparation of Streptavidin (SA) Donor beads (25 μg/mL) were added and incubated for 30 minutes in the Dark. Light Emission at 615 nm was then recorded using EnVision-Alpha Reader. Levels of Aβ 40 in the culture supernatants were calculated as percentage of maximum signal (cells treated with 1% DMSO without inhibitor). The IC50 values were calculated using the Excel XLfit software.

T1 sequence (P56817 46-501): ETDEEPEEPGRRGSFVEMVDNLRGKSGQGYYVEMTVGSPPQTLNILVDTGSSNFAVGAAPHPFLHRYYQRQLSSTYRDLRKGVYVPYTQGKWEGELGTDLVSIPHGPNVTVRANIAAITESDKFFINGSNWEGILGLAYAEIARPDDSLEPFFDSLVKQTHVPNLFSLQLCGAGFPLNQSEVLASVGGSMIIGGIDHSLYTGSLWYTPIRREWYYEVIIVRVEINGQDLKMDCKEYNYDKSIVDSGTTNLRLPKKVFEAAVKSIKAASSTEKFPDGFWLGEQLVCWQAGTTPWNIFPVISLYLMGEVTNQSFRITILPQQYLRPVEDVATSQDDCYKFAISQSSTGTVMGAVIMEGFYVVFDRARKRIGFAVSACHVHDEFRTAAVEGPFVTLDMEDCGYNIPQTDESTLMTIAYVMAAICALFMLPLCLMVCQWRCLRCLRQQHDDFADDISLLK

COc1cnc(C(=O)Nc2ccc(F)c([C@@]3(C)N=C(N)C(C)(C)[S@@]4(=O)=NCC[C@@H]34)n2)cn1 [Example 16AB, N-(6-((3aS,4R,8R)-6-amino-4,7,7-trimethyl-8-oxido-3,3a,4,7-tetrahydro-2H-isothiazolo[1,5-a][1,4]thiazin-4-yl)-5-fluoropyridin-2-yl)-5-methoxypyrazine-2-carboxamide]
response vs control in vivo at 30 mg/kg [1]: 89%
IC50 (BACE1): 8.6 nM

CC1(C)C(N)=N[C@](C)(c2nc(NC(=O)c3ccc(OCF)cn3)ccc2F)[C@@H]2CCN=[S@@]21=O [Example 13AB, N-(6-((3aS,4R,8R)-6-amino-4,7,7-trimethyl-8-oxido-3,3a,4,7-tetrahydro-2H-isothiazolo[1,5-a][1,4]thiazin-4-yl)-5-fluoropyridin-2-yl)-5-(fluoromethoxy)picolinamide]
response vs control in vivo at 30 mg/kg [1]: 86%
IC50 (BACE1): 9.8 nM

CC1(C)C(N)=N[C@](C)(c2nc(NC(=O)c3ncc(Cl)cc3Cl)ccc2F)[C@H]2CC(F)(F)CN=[S@@]21=O [Example 40AA, N-(6-((4aR,5R,9R)-7-amino-3,3-difluoro-5,8,8-trimethyl-9-oxido-2,3,4,4a,5,8-hexahydro-[1,4]thiazino[2,1-f][1,2]thiazin-5-yl)-5-fluoropyridin-2-yl)-3,5-dichloropicolinamide]
response vs control in vivo at 30 mg/kg [1]: 77%
IC50 (BACE1): 4.9 nM

Cc1cc(C#N)cnc1C(=O)Nc1ccc(F)c([C@@]2(C)N=C(N)C(C)(C)[S@@]3(=O)=NCC(F)(F)C[C@H]23)n1 [Example 32AA, N-(6-((4aR,5R,9R)-7-amino-3,3-difluoro-5,8,8-trimethyl-9-oxido-2,3,4,4a,5,8-hexahydro-[1,4]thiazino[2,1-f][1,2]thiazin-5-yl)-5-fluoropyridin-2-yl)-5-cyano-3-methylpicolinamide]
response vs control in vivo at 30 mg/kg [1]: 53%
IC50 (BACE1): 1.2 nM

Cc1cc(C#N)cnc1C(=O)Nc1ccc(F)c([C@@]2(C)N=C(N)C(C)(C)[S@@]3(=O)=NCC4(CC4)C[C@H]23)n1 [Example 48AA, N-(6-((4aR,5R,9R)-7-amino-5,8,8-trimethyl-9-oxido-4,4a,5,8-tetrahydro-2H-spiro[[1,4]thiazino[2,1-f][1,2]thiazine-3,1′-cyclopropan]-5-yl)-5-fluoropyridin-2-yl)-5-cyano-3-methylpicolinamide]
response vs control in vivo at 30 mg/kg [1]: 61%
IC50 (BACE1): 0.3 nM

CC1(C)C(N)=N[C@](C)(c2nc(NC(=O)c3ncc(F)cc3Cl)ccc2F)[C@@H]2CCN=[S@@]21=O [Example 11AB, N-(6-((3aS,4R,8R)-6-amino-4,7,7-trimethyl-8-oxido-3,3a,4,7-tetrahydro-2H-isothiazolo[1,5-a][1,4]thiazin-4-yl)-5-fluoropyridin-2-yl)-3-chloro-5-fluoropicolinamide]
response vs control in vivo at 30 mg/kg [1]: 100%
IC50 (BACE1): 3.5 nM

Cc1cc(C#N)cnc1C(=O)Nc1ccc(F)c([C@@]2(C)N=C(N)C(C)(C)[S@@]3(=O)=NCCC[C@H]23)n1 [Example 1AA, N-(6-((4aR,5R,9R)-7-amino-5,8,8-trimethyl-9-oxido-2,3,4,4a,5,8-hexahydro-[1,4]thiazino[2,1-f][1,2]thiazin-5-yl)-5-fluoropyridin-2-yl)-5-cyano-3-methylpicolinamide]
response vs control in vivo at 30 mg/kg [1]: 38%
IC50 (BACE1): 0.6 nM

CC1(C)C(N)=N[C@](C)(c2nc(NC(=O)c3ccc(C#N)cc3)ccc2F)[C@@H]2CCN=[S@@]21=O [Example 30AB, N-(6-((3aS,4R,8R)-6-amino-4,7,7-trimethyl-8-oxido-3,3a,4,7-tetrahydro-2H-isothiazolo[1,5-a][1,4]thiazin-4-yl)-5-fluoropyridin-2-yl)-4-cyanobenzamide]
IC50 (BACE1): 14 nM

CC1(C)C(N)=N[C@](C)(c2nc(NC(=O)c3ccc(OCF)cn3)ccc2F)[C@H]2CCN=[S@]21=O [Example 13BA, N-(6-((3aR,4R,8S)-6-amino-4,7,7-trimethyl-8-oxido-3,3a,4,7-tetrahydro-2H-isothiazolo[1,5-a][1,4]thiazin-4-yl)-5-fluoropyridin-2-yl)-5-(fluoromethoxy)picolinamide]
IC50 (BACE1): 382 nM

CC1(C)C(N)=N[C@](C)(c2nc(NC(=O)c3ccc(OCC(F)(F)C(F)F)cn3)ccc2F)[C@H]2CCN=[S@]21=O [Example 15BA, N-(6-((3aR,4R,8S)-6-amino-4,7,7-trimethyl-8-oxido-3,3a,4,7-tetrahydro-2H-isothiazolo[1,5-a][1,4]thiazin-4-yl)-5-fluoropyridin-2-yl)-5-(2,2,3,3-tetrafluoropropoxy)picolinamide]
IC50 (BACE1): 557 nM

COc1cnc(C(=O)Nc2ccc(F)c([C@@]3(C)N=C(N)C(C)(C)[S@]4(=O)=NCC[C@H]34)n2)cn1 [Example 16BA, N-(6-((3aR,4R,8S)-6-amino-4,7,7-trimethyl-8-oxido-3,3a,4,7-tetrahydro-2H-isothiazolo[1,5-a][1,4]thiazin-4-yl)-5-fluoropyridin-2-yl)-5-methoxypyrazine-2-carboxamide]
IC50 (BACE1): 115 nM

Cc1cc(C#N)cnc1C(=O)Nc1ccc(F)c([C@@]2(C)N=C(N)C(C)(C)[S@@]3(=O)=NCC4(CC4)C[C@@H]23)n1 [Example 48AB, N-(6-((4aS,5R,9R)-7-amino-5,8,8-trimethyl-9-oxido-4,4a,5,8-tetrahydro-2H-spiro[[1,4]-thiazino[2,1-f][1,2]thiazine-3,1′-cyclopropan]-5-yl)-5-fluoropyridin-2-yl)-5-cyano-3-methylpicolinamide]
IC50 (BACE1): 13 nM

CC1(C)C(N)=N[C@](C)(c2nc(NC(=O)c3cnc(OC(F)F)cn3)ccc2F)[C@H]2CCN=[S@]21=O [Example 26BA, N-(6-((3aR,4R,8S)-6-amino-4,7,7-trimethyl-8-oxido-3,3a,4,7-tetrahydro-2H-isothiazolo[1,5-a][1,4]thiazin-4-yl)-5-fluoropyridin-2-yl)-5-(difluoromethoxy)pyrazine-2-carboxamide]
IC50 (BACE1): 152 nM

CC1(C)C(N)=N[C@](C)(c2nc(NC(=O)c3ccc(F)cn3)ccc2F)[C@H]2CCN=[S@]21=O [Example 27BA, N-(6-((3aR,4R,8S)-6-amino-4,7,7-trimethyl-8-oxido-3,3a,4,7-tetrahydro-2H-isothiazolo[1,5-a][1,4]thiazin-4-yl)-5-fluoropyridin-2-yl)-5-fluoropicolinamide]
IC50 (BACE1): 118 nM

CC#Cc1ccc(C(=O)Nc2ccc(F)c([C@@]3(C)N=C(N)C(C)(C)[S@@]4(=O)=NCC(F)(F)C[C@H]34)n2)nc1 [Example 47AA, N-(6-((4aR,5R,9R)-7-amino-3,3-difluoro-5,8,8-trimethyl-9-oxido-2,3,4,4a,5,8-hexahydro-[1,4]thiazino[2,1-f][1,2]thiazin-5-yl)-5-fluoropyridin-2-yl)-5-(prop-1-yn-1-yl)picolinamide]
IC50 (BACE1): 147 nM

CC1(C)C(N)=N[C@](C)(c2nc(NC(=O)c3ccc(OC(F)F)cn3)ccc2F)[C@H]2CCN=[S@]21=O [Example 14BA, N-(6-((3aR,4R,8S)-6-amino-4,7,7-trimethyl-8-oxido-3,3a,4,7-tetrahydro-2H-isothiazolo[1,5-a][1,4]thiazin-4-yl)-5-fluoropyridin-2-yl)-5-(difluoromethoxy)picolinamide]
IC50 (BACE1): 52.6 nM
